Each structure is given as a SMILES string. The source made the active and inactive calls. No cut-off for these calls is given here.

The target of assay [1] is T1, Glutamate NMDA receptor; GRIN1/GRIN2B (Homo sapiens, UniProt Q05586+Q13224). The assay can be described thus: Inhibition of recombinant GluN1/GluN2B receptor (unknown origin) expressed in HEK293 cells assessed as inhibition of glutamate-evoked current by whole-cell voltage-clamp method. The class given is cell-based.
Assay [2] concerns the target T1, Glutamate NMDA receptor; GRIN1/GRIN2B. The assay can be described thus: Inhibition of recombinant GluN1/GluN2B receptor (unknown origin) expressed in HEK293 cells assessed as inhibition of glutamate-evoked current at 1 to 10 uM by whole-cell voltage-clamp method. The class given is cell-based.
Assay [3] addresses Glutamate NMDA receptor; GRIN1/GRIN2A (Homo sapiens, UniProt Q05586+Q12879). The assay can be described thus: Inhibition of recombinant GluN1/GluN2A receptor (unknown origin) expressed in HEK293 cells assessed as inhibition of glutamate-evoked current by whole-cell voltage-clamp method. The class given is cell-based.
The nature of assay [4]: Inhibition of GABA receptor in rat hippocampal neurons assessed as inhibition of GABA-evoked current by whole-cell voltage-clamp method. As to conditions: Hippocampus. The class given is tissue-based.
Assay [5] is described as follows: Inhibition of AMPA receptor in rat hippocampal neurons assessed as inhibition of AMPA-evoked current by whole-cell voltage-clamp method in presence of receptor desensitization inhibitor cyclothiazide. The assay is classed as tissue-based. As to conditions: Hippocampus.
Assay [6] concerns the target Ionotropic glutamate receptor NMDA 1/2D (Homo sapiens, UniProt O15399+Q05586). The assay can be described thus: Inhibition of recombinant GluN1/GluN2D receptor (unknown origin) expressed in HEK293 cells assessed as inhibition of glutamate-evoked current by whole-cell voltage-clamp method. The class given is cell-based.
The target of assay [7] is Ionotropic glutamate receptor NMDA 1/2C (Homo sapiens, UniProt Q05586+Q14957). The assay can be described thus: Inhibition of recombinant GluN1/GluN2C receptor (unknown origin) expressed in HEK293 cells assessed as inhibition of glutamate-evoked current by whole-cell voltage-clamp method. The class given is cell-based.
Ionotropic glutamate receptor NMDA 1/2C, sequence (Q14957 whole entry, other chains not shown): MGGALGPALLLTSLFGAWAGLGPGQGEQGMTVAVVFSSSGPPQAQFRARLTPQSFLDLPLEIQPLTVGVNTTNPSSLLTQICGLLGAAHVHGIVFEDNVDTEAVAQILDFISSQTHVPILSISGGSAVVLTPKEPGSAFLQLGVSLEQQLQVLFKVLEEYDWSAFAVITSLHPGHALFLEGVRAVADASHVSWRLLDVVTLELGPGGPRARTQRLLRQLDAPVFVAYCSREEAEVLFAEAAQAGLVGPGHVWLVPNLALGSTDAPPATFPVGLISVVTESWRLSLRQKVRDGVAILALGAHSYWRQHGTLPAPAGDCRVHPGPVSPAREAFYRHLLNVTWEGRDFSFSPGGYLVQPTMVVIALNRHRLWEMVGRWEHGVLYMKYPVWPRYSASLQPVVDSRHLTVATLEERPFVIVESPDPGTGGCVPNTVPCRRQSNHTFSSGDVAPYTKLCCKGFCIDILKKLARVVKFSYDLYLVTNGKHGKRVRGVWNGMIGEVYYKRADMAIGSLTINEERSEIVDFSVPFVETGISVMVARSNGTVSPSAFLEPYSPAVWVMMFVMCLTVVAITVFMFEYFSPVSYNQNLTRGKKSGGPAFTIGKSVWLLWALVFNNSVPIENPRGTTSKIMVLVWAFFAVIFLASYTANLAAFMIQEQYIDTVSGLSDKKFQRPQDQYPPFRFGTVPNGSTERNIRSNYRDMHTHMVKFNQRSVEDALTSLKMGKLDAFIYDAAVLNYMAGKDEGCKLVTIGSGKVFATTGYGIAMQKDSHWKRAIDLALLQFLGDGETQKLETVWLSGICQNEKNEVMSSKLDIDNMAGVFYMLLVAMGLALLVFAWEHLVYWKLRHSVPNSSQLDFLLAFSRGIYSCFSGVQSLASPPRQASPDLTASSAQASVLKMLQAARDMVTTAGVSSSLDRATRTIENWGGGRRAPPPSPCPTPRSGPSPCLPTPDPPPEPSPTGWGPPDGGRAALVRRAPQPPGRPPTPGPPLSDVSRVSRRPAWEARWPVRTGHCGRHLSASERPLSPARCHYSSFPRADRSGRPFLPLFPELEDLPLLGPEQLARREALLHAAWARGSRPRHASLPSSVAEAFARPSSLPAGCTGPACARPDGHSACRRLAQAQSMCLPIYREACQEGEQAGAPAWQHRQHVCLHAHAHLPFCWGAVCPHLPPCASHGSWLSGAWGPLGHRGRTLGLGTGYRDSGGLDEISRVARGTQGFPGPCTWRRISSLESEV
Another assay deals with Glutamate NMDA receptor. Nature of the assay: Inhibition of NMDA receptor in rat hippocampal neurons assessed as inhibition of glutamate-evoked current by whole-cell voltage-clamp method. The class given is tissue-based, Hippocampus.

Ionotropic glutamate receptor NMDA 1/2D, sequence (O15399 whole entry, other chains not shown): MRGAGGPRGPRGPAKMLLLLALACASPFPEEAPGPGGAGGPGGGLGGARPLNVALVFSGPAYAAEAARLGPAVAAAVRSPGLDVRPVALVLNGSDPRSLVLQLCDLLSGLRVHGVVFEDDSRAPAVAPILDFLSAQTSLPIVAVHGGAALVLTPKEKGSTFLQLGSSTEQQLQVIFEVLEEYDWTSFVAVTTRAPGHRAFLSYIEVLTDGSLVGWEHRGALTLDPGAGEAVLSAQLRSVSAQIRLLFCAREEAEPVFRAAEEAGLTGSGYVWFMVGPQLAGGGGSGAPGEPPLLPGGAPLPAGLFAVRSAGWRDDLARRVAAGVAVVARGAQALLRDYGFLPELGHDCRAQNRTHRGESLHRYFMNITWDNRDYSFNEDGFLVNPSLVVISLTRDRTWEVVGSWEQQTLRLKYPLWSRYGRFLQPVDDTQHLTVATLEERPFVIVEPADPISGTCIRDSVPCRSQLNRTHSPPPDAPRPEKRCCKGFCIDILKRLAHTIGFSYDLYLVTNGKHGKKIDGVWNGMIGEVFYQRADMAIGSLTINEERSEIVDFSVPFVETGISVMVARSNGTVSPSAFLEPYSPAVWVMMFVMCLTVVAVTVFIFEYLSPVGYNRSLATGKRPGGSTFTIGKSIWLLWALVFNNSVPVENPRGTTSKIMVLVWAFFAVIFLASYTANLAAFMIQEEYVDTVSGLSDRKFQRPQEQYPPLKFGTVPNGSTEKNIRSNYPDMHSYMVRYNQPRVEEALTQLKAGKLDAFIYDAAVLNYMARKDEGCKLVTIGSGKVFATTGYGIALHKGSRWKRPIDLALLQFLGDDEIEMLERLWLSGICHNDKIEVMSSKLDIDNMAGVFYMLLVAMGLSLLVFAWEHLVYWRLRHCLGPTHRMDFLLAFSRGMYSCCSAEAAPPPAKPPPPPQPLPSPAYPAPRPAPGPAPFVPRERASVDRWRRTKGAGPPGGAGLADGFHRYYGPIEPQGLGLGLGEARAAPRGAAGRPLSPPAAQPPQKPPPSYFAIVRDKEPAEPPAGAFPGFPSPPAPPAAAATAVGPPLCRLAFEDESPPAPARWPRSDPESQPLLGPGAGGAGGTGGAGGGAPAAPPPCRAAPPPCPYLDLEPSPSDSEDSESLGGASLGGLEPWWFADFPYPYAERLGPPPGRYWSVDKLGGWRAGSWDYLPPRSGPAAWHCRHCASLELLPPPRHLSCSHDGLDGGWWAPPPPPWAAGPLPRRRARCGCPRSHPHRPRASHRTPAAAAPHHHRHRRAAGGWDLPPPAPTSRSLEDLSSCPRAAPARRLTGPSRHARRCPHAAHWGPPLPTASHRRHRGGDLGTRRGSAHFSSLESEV
Glutamate NMDA receptor; GRIN1/GRIN2A, sequence (Q12879 whole entry, other chains not shown): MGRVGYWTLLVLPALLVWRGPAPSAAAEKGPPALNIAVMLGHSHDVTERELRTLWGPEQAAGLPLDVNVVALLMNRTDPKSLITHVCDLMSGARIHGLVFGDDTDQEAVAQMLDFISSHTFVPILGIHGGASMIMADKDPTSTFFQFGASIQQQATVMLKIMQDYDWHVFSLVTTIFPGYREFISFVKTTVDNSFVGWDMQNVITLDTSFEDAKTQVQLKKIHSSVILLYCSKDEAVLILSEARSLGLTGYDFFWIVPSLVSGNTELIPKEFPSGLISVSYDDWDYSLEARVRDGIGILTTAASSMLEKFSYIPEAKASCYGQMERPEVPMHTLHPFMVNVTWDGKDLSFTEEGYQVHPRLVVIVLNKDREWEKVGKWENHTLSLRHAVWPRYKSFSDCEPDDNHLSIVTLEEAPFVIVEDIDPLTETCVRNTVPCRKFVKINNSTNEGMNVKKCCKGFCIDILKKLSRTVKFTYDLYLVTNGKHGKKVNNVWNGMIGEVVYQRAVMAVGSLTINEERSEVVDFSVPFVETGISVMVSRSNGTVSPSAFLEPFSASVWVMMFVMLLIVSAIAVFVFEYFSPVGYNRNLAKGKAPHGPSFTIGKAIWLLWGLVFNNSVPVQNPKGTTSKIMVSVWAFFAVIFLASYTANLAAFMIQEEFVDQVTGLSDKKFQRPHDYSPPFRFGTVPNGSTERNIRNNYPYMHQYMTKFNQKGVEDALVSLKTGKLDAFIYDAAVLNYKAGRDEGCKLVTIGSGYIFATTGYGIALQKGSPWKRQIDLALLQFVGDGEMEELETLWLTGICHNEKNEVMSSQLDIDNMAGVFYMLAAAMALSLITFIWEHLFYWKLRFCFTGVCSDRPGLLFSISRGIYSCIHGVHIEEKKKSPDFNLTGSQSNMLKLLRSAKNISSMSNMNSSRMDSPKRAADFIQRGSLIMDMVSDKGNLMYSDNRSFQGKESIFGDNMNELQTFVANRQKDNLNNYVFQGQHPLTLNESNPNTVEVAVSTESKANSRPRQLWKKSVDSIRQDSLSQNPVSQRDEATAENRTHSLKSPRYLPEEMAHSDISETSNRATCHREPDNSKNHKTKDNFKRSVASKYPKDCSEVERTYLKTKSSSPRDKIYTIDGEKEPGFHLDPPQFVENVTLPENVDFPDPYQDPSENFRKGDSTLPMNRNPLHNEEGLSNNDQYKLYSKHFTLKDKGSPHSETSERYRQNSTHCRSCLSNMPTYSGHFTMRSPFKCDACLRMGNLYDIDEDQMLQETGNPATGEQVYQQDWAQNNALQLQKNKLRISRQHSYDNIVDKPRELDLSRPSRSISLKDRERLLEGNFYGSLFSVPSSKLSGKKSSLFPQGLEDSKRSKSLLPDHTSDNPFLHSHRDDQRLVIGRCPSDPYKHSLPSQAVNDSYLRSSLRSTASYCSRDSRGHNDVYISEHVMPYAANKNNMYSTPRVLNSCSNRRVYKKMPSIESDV

Usually IC50 stands for the concentration that inhibits the measured activity by half. Turning to `C[C@]12CC[C@@H](OS(=O)(=O)O)C[C@H]1CC[C@@H]1[C@@H]2CC[C@]2(C)[C@@H](I)CC[C@@H]12.c1ccncc1`, the concentration for half-maximal inhibition (IC50) in assay [1] amounted to 600 nM. Same read-out and setting: next, `C[C@]12CC[C@@H](OS(=O)(=O)O)C[C@H]1CC[C@@H]1[C@@H]2CC[C@@]2(C)[C@H]1CCC2(F)F.c1ccncc1`: 7000 nM; `C[C@@]12CCC[C@H]1[C@@H]1CC[C@@H]3C[C@H](OS(=O)(=O)O)CC[C@@H]3[C@H]1CC2.c1ccncc1`: 5400 nM. On the same count and under the same terms, then `C/C=C1/CC[C@H]2[C@@H]3CC[C@@H]4C[C@H](OS(=O)(=O)O)CC[C@]4(C)[C@H]3CC[C@]12C.c1ccncc1`, with 800 nM. The same measure, in the same setting: next, `C=C1CC[C@H]2[C@@H]3CC[C@@H]4C[C@H](OS(=O)(=O)O)CC[C@]4(C)[C@H]3CC[C@]12C.c1ccncc1`: 1600 nM; `C[C@@]12CCC[C@H]1[C@@H]1CC[C@@H]3C[C@H](OS(=O)(=O)O)CC[C@]3(C)[C@H]1CC2.c1ccncc1`: 1200 nM. With `C=C1C[C@H]2[C@@H]3CC[C@@H]4C[C@H](OS(=O)(=O)O)CC[C@]4(C)[C@H]3CC[C@]2(C)C1.c1ccncc1`, the IC50 in assay [1] was found to be 2200 nM. `C[C@]12CC[C@@H](OS(=O)(=O)O)C[C@H]1CC[C@@H]1[C@@H]2CC[C@]2(C)C=CC[C@@H]12.c1ccncc1`: in assay [2], the inhibition result was “inactive”. As for `CC[C@H]1CC[C@H]2[C@@H]3CC[C@@H]4C[C@H](OS(=O)(=O)O)CC[C@]4(C)[C@H]3CC[C@]12C.c1ccncc1`, the IC50 in assay [1] worked out at 400 nM. For `CC(C)[C@H]1CC[C@H]2[C@@H]3CC[C@@H]4C[C@H](OS(=O)(=O)O)CC[C@]4(C)[C@H]3CC[C@]12C.c1ccncc1`, the IC50 in assay [1] was found to be 170 nM. Consider `C[C@H]1CC[C@H]2[C@@H]3CC[C@@H]4C[C@H](OS(=O)(=O)O)CC[C@]4(C)[C@H]3CC[C@]12C.c1ccncc1`, for which the IC50 in assay [3] is 600 nM; in assay [4] it was 1200 nM; in assay [5] it was 9500 nM; in assay [6], 500 nM; in assay [1] it was 600 nM; in assay [7], 400 nM. Moreover, the 50% inhibitory concentration (IC50) on Glutamate NMDA receptor was determined as 900 nM. Consider `C[C@@H]1CC[C@@H]2[C@H]1CC[C@H]1[C@H]2CC[C@@H]2C[C@H](OS(=O)(=O)O)CC[C@@]21C.c1ccncc1`, for which the half-maximal inhibitory concentration (IC50) in assay [1] came to 900 nM. Same read-out and setting: next, `CC[C@@H](C)[C@H]1CC[C@H]2[C@@H]3CC[C@@H]4C[C@H](OS(=O)(=O)O)CC[C@]4(C)[C@H]3CC[C@]12C.c1ccncc1`: 90 nM; `C=C(C)[C@H]1CC[C@H]2[C@@H]3CC[C@@H]4C[C@H](OS(=O)(=O)O)CC[C@]4(C)[C@H]3CC[C@]12C.c1ccncc1`: 500 nM.

With `C[C@@]12CCCC[C@H]1[C@@H]1CC[C@@H]3C[C@H](OS(=O)(=O)O)CC[C@]3(C)[C@H]1CC2.c1ccncc1`, the 50% inhibitory concentration (IC50) in assay [1] is 1100 nM. Still for that read-out and setting: then `C[C@H]1CC[C@@H]2[C@@H]1CC[C@H]1[C@H]2CC[C@@H]2C[C@H](OS(=O)(=O)O)CC[C@@]21C.c1ccncc1`, with 700 nM. With `CC(=O)[C@H]1CC[C@H]2[C@@H]3CC[C@@H]4C[C@H](OS(=O)(=O)O)CC[C@]4(C)[C@H]3CC[C@]12C`, in assay [1], the IC50 was 23400 nM and the inhibition entry was “Dose-dependent effect”.
